Measurements published in patent US20240228488A1 (TAKEDA PHARMACEUTICAL COMPANY LIMITED, priority 2021, published 2024).

How the values were obtained:
plasma kallikrein = target: T1, plasma kallikrein (Homo sapiens, UniProt P03952); assay: Neat human plasma assay, FXIIa contact pathway-activated, PFR-AMC substrate; format: biochemical; conditions: citrated human plasma 78% final, 10 nM human FXIIa, 100 μM PFR-AMC; read-out: Human Plasma Assay: IC90
T1 construct: from tissue
How it was run: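 Citrated human plasma (78% final) with compound, contact-activated by 10 nM human FXIIa in pKal buffer pH 7.5, with 100 μM PFR-AMC. Fluorescence (360/480 nm) followed 5 min at room temperature; rates versus concentration fitted by 4-parameter equation for IC50/IC90.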

[1] = target: human activated kallikrein enzyme (Homo sapiens, UniProt P03952); assay: Plasma kallikrein inhibition, fluorogenic PFR-AMC substrate, 500 pM activated kallikrein format; format: biochemical; conditions: 500 pM activated kallikrein, 300 uM PFR-AMC, 30 min preincubation, 10 min reaction; read-out: Primary Dose Response Assay: Average EC50
How it was run: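 500 pM enz + cpd, 30 min RT preinc; start w/ PFR-AMC 300 uM; 10 min RT; Ex380/Em460. Buffer: Tris 20 mM pH 7.5, EDTA 1 mM, NaCl 150 mM, PEG-400 0.1%, Triton 0.1%. EC50.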

T1 sequence (P03952 391-638 limits assumed): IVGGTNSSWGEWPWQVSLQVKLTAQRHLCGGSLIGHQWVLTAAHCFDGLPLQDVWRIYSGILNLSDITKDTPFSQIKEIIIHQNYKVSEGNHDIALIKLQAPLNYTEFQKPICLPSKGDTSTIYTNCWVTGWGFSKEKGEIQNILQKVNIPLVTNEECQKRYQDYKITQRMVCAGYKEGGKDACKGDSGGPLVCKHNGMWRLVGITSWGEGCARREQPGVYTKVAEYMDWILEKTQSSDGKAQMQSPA
T1 sequence (P03952 20-390 partner limits assumed): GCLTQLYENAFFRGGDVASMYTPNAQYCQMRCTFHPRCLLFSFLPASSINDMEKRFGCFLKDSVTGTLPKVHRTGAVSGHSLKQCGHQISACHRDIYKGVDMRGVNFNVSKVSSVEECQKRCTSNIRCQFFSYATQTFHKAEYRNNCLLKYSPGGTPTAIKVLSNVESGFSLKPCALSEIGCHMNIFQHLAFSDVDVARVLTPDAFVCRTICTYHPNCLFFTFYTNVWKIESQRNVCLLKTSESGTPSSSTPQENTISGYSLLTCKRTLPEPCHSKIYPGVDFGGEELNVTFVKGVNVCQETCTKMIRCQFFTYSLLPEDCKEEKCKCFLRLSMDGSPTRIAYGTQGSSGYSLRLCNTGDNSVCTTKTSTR
human activated kallikrein enzyme, sequence (P03952 391-638 limits assumed): as the sequence (P03952 391-638 limits assumed) above
human activated kallikrein enzyme, sequence (P03952 20-390 partner limits assumed): as the sequence (P03952 20-390 partner limits assumed) above

SMILES | IC90 (plasma kallikrein) | EC50 [1]
CN1CCN(c2cc(C3CC3)cn3cc(COc4ccnc(NC(=O)[C@H]5C[C@@H]5c5cccc(Cl)c5)c4)nc23)CC1 [Example 565, (1S,2S)-2-(3-chlorophenyl)-N-(4-((6-cyclopropyl-8-(4-methylpiperazin-1-yl)imidazo[1,2-a]pyridin-2-yl)methoxy)pyridin-2-yl)cyclopropane-1-carboxamide] | 1500 to 10000 nM | 1 to 10 nM
Cc1cc(NC(=O)[C@H]2C[C@@H]2c2nccc(C)n2)cc(NCc2cn3cc(C4CC4)cc(N4CC(=O)N(C)C4=O)c3n2)n1 [Example I-639, (1S,2S)—N-(2-(((6-cyclopropyl-8-(3-methyl-2,4-dioxoimidazolidin-1-yl)imidazo[1,2-a]pyridin-2-yl)methyl)amino)-6-methylpyridin-4-yl)-2-(4-methylpyrimidin-2-yl)cyclopropane-1-carboxamide] | < 400 nM | < 1 nM
Cc1ccnc([C@H]2C[C@@H]2C(=O)Nc2nccc(NCc3cn4cc(C5CC5)cc(N5CC(=O)N(C)C5=O)c4n3)n2)n1 (racemic) [Example 520, rac-(1S*,2S*)-N-(4-(((6-cyclopropyl-8-(3-methyl-2,4-dioxoimidazolidin-1-yl)imidazo[1,2-a]pyridin-2-yl)methyl)amino)pyrimidin-2-yl)-2-(4-methylpyrimidin-2-yl)cyclopropane-1-carboxamide] | < 400 nM | < 1 nM
O=C(Nc1cc(N(CCO)Cc2cn3cc(C4CC4)ccc3n2)ccn1)[C@H]1C[C@@H]1c1cccc(Cl)c1 [Example 604, (1S,2S)-2-(3-chlorophenyl)-N-(4-(((6-cyclopropylimidazo[1,2-a]pyridin-2-yl)methyl)(2-hydroxyethyl)amino)pyridin-2-yl)cyclopropane-1-carboxamide] | 10000 to 48000 nM | 1 to 10 nM
Cc1ccnc([C@H]2C[C@@H]2C(=O)Nc2ncc(F)c(N(C)Cc3cn4cc(C5CC5)cc(N5CC(=O)NC5=O)c4n3)n2)n1 (racemic) [Example 516, rac-(1S*,2S*)-N-(4-(((6-cyclopropyl-8-(2,4-dioxoimidazolidin-1-yl)imidazo[1,2-a]pyridin-2-yl)methyl)(methyl)amino)-5-fluoropyrimidin-2-yl)-2-(4-methylpyrimidin-2-yl)cyclopropane-1-carboxamide] | < 400 nM | < 1 nM
O=C(Nc1cc(NCc2cn3cc(C4CC4)cc(N4CCN5CC(O)CC5C4)c3n2)ncn1)[C@H]1C[C@@H]1c1cccc(Cl)c1 (stereo partly drawn) [Example I-196, (1S,2S)-2-(3-chlorophenyl)-N-(6-(((6-cyclopropyl-8-(7-hydroxyhexahydropyrrolo[1,2-a]pyrazin-2(1H)-yl)imidazo[1,2-a]pyridin-2-yl)methyl)amino)pyrimidin-4-yl)cyclopropane-1-carboxamide] | 1500 to 10000 nM | 1 to 10 nM
COCCN1CCN(c2cc(C3CC3)cn3cc(CNc4ccnc(NC(=O)[C@H]5C[C@@H]5c5cccc(Cl)c5)c4)nc23)CC1 [Example 599, (1S,2S)-2-(3-chlorophenyl)-N-(4-(((6-cyclopropyl-8-(4-(2-methoxyethyl)piperazin-1-yl)imidazo[1,2-a]pyridin-2-yl)methyl)amino)pyridin-2-yl)cyclopropane-1-carboxamide] | < 400 nM | < 1 nM
CN(C)C(=O)c1cc(C2CC2)cn2cc(CNc3cc(NC(=O)[C@H]4C[C@@H]4c4cccc(Cl)c4)ncn3)nc12 [Example 299, 2-(((6-((1S,2S)-2-(3-chlorophenyl)cyclopropane-1-carboxamido)pyrimidin-4-yl)amino)methyl)-6-cyclopropyl-N,N-dimethylimidazo[1,2-a]pyridine-8-carboxamide] | 400 to 1500 nM | < 1 nM
N#Cc1ccc(Cl)cc1[C@H]1C[C@@H]1C(=O)Nc1cc(NCc2cn3cc(C4CC4)cc(COCCO)c3n2)ccn1 (racemic) [Example 289, rac-(1S*,2S*)-2-(5-chloro-2-cyanophenyl)-N-(4-(((6-cyclopropyl-8-((2-hydroxyethoxy)methyl)imidazo[1,2-a]pyridin-2-yl)methyl)amino)pyridin-2-yl)cyclopropane-1-carboxamide] | 1500 to 10000 nM | < 1 nM
COCc1nc(NC(=O)[C@H]2C[C@@H]2c2nccc(C)n2)cc(N(C)Cc2cn3cc(C4CC4)cc(N4CC(=O)N(C)C4=O)c3n2)n1 [Example 354, (1S,2S)-N-(6-(((6-cyclopropyl-8-(3-methyl-2,4-dioxoimidazolidin-1-yl)imidazo[1,2-a]pyridin-2-yl)methyl)(methyl)amino)-2-(methoxymethyl)pyrimidin-4-yl)-2-(4-methylpyrimidin-2-yl)cyclopropane-1-carboxamide] | < 400 nM | < 1 nM
COc1ccc(C#N)c([C@H]2C[C@@H]2C(=O)Nc2cc(OCc3cn4cc(C5CC5)cc(N5CC(=O)N(C)C5=O)c4n3)cnn2)c1 (racemic) [Example 559, rac-(1S*,2S*)-2-(2-cyano-5-methoxyphenyl)-N-(5-((6-cyclopropyl-8-(3-methyl-2,4-dioxoimidazolidin-1-yl)imidazo[1,2-a]pyridin-2-yl)methoxy)pyridazin-3-yl)cyclopropane-1-carboxamide] | 400 to 1500 nM | 1 to 10 nM
CN1C(=O)CN(c2cc(C3CC3)cn3cc(CN(C)c4cnnc(NC(=O)[C@H]5C[C@@H]5c5cccc(Cl)c5)c4)nc23)C1=O [Example I-641, (1S,2S)-2-(3-chlorophenyl)-N-(5-(((6-cyclopropyl-8-(3-methyl-2,4-dioxoimidazolidin-1-yl)imidazo[1,2-a]pyridin-2-yl)methyl)(methyl)amino)pyridazin-3-yl)cyclopropane-1-carboxamide] | 400 to 1500 nM | < 1 nM
CC(=O)N(C)c1cc(C2CC2)cn2cc(CNc3cc(NC(=O)[C@H]4C[C@@H]4c4cccc(Cl)c4)ncn3)nc12 [Example 274, (1S,2S)-2-(3-chlorophenyl)-N-(6-(((6-cyclopropyl-8-(N-methylacetamido)imidazo[1,2-a]pyridin-2-yl)methyl)amino)pyrimidin-4-yl)cyclopropane-1-carboxamide] | 1500 to 10000 nM | 1 to 10 nM
COc1ccnc([C@H]2C[C@@H]2C(=O)Nc2cc(N[C@H](C)c3cn4cc(C5CC5)cc(N5CC(=O)N(C)C5=O)c4n3)ncn2)n1 (relative stereo) [Example 529, rac-(1S*,2S*)-N-(6-(((R)-1-(6-cyclopropyl-8-(3-methyl-2,4-dioxoimidazolidin-1-yl)imidazo[1,2-a]pyridin-2-yl)ethyl)amino)pyrimidin-4-yl)-2-(4-methoxypyrimidin-2-yl)cyclopropane-1-carboxamide] | 400 to 1500 nM | < 1 nM
Cc1ccnc([C@H]2C[C@@H]2C(=O)Nc2cc(NCc3cn4cc(C5CC5)cc(N5CC(=O)N(CC(F)(F)F)C5=O)c4n3)ncn2)n1 (racemic) [Example 388, rac-(1S*,2S*)-N-(6-(((6-cyclopropyl-8-(2,4-dioxo-3-(2,2,2-trifluoroethyl)imidazolidin-1-yl)imidazo[1,2-a]pyridin-2-yl)methyl)amino)pyrimidin-4-yl)-2-(4-methylpyrimidin-2-yl)cyclopropane-1-carboxamide] | 400 to 1500 nM | < 1 nM
